For assay [1], the target named is T1, Amine oxidase [flavin-containing] A (Homo sapiens, UniProt P21397).
T1 sequence (P21397 whole entry): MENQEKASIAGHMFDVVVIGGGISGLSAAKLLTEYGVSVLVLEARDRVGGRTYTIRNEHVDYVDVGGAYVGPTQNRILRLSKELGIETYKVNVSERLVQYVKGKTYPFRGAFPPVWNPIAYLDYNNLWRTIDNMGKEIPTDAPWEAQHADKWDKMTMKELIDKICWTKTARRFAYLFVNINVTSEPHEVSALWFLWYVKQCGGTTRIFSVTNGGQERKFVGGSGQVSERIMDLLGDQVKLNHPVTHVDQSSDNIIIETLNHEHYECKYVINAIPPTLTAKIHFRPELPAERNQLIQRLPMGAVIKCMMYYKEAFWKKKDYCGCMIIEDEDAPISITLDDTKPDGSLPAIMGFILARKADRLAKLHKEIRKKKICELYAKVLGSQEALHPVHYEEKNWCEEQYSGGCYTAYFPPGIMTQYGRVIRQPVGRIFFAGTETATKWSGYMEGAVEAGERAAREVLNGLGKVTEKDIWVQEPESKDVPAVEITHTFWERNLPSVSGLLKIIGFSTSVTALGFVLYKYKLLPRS
Kind of assay: Inhibition of recombinant human MAO-A expressed in baculovirus infected BTI insect cell microsomes using kynuramine as substrate after 20 mins by fluorescence spectroscopy.

The species entered for a further assay is Homo sapiens. Kind of assay: Selectivity index, ratio of IC50 for recombinant human MAO-B to IC50 for recombinant human MAO-A expressed in baculovirus infected BTI insect cell microsomes.
For assay [2], the target named is T2, Amine oxidase [flavin-containing] B (Homo sapiens, UniProt P27338).
T2 sequence (P27338 whole entry): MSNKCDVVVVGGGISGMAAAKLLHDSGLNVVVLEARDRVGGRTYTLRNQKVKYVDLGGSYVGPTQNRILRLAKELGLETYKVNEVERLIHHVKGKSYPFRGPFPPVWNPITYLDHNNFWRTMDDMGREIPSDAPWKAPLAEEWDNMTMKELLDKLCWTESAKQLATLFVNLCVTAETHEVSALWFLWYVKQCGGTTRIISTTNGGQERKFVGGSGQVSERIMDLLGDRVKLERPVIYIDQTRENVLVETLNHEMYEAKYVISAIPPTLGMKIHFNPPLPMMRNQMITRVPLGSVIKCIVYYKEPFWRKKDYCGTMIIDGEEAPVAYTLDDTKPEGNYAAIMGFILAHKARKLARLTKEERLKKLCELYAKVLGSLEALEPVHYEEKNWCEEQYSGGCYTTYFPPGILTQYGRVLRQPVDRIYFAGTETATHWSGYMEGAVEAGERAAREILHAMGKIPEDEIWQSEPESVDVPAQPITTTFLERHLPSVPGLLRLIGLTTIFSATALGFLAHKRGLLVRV
Kind of assay: Inhibition of recombinant human MAO-B expressed in baculovirus infected BTI insect cell microsomes using kynuramine as substrate after 20 mins by fluorescence spectroscopy.

For assay [3], the target named is T1, Amine oxidase [flavin-containing] A. Kind of assay: Irreversible inhibition of recombinant human MAO-A expressed in baculovirus infected BTI insect cell microsomes assessed as residual activity using kynuramine as substrate at 13 uM preincubated for 15 mins with subsequent dialysis for 24 hrs followed by substrate addition measured after 20 mins by fluorescence spectroscopy relative to negative control. As to conditions: read-out: INH.

The target of assay [4] is T2, Amine oxidase [flavin-containing] B. Kind of assay: Non-competitive inhibition of human brain mitochondria MAO-B using kynuramine as substrate by Lineweaver-Burk analysis.
For assay [5], the target named is T1, Amine oxidase [flavin-containing] A. Kind of assay: Competitive inhibition of human brain mitochondria MAO-A using kynuramine as substrate by Lineweaver-Burk analysis.
The target in assay [6] is T2, Amine oxidase [flavin-containing] B. Kind of assay: Inhibition of human liver mitochondria MAO-B using 1-methyl-4-phenyl-1,2,3,6-tetrahydropyridine as substrate after 15 mins by spectrophotometric analysis.
The target of assay [7] is T1, Amine oxidase [flavin-containing] A. Kind of assay: Inhibition of human gastrointestinal mitochondria MAO-A using 1-methyl-4-(1-methylpyrrol-2-yl)-1,2,3,6-tetrahydropyridine as substrate after 30 mins by spectrophotometric analysis.

In general, IC50 refers to the midpoint of a concentration-inhibition curve. One may read the Ki as the equilibrium dissociation constant of an inhibitor or competing ligand from its target. A higher Ki goes with a looser hold on the target.

With `O=C1C=CC(=O)C(c2ccccc2)=C1`, the results for the IC50 in assay [1] and in assay [2] were 5.03 µM and 7.87 µM, respectively. In addition, the Ratio IC50 in the assay filed under Homo sapiens was determined as 1.6.
Consider `C#CCN(C)Cc1ccccc1` [PARGYLINE], for which the activity at 13 µM in assay [3] was in the range of 0.1 to 1.6%.
As to `O=C1C=CC(=O)C(C2CCCC2)=C1`, the 50% inhibitory concentration (IC50) in assay [1] was found to be 5.84 µM; in assay [2] it was 17.8 µM. Also, the Ratio IC50 in the assay listed under Homo sapiens came to 3.
Take `O=C1C=CC(=O)C=C1` [BENZOQUINONE]: the Ki in assay [4] amounted to 20.3 µM; in assay [5] it was 9.62 µM. The results for the IC50 in assay [1] and in assay [2] were 4.82 µM and 10.2 µM, respectively. Besides, in the assay listed under Homo sapiens, the Ratio IC50 amounted to 2.1.
For the compound `CC1=C(C)C(=O)c2cc(C)ccc2C1=O`, the Ki in assay [6] was 6 µM; in assay [7] it was 3 µM.
Take `O=C1C=CC(=O)C(Cc2ccccc2)=C1`: the IC50 in assay [1] was found to be 5.37 µM; in assay [2], 23.2 µM. Further, in the assay listed under Homo sapiens, the Ratio IC50 worked out at 4.3.
Taken in the same sequence, the figures for `O=C1C=CC(=O)C(OCc2ccccc2)=C1` were 13.2 µM, 3.69 µM and 0.3.

(Values after ChEMBL document CHEMBL4052625, “The evaluation of 1,4-benzoquinones as inhibitors of human monoamine oxidase” (Eur J Med Chem, 2017).)
